The text below walks through data of ChEMBL document CHEMBL4385628, “New insights into the binding mode of pyridine-3-carboxamide inhibitors of E. coli DNA gyrase” (Bioorg Med Chem, 2019).

In brackets after ≈: the same amount, converted by molar mass. Activity calls are given as the source filed them. The calls are words filed in the database; no cut-off is given here.

For one series, the system named is Staphylococcus aureus. In words: Antibacterial activity against Staphylococcus aureus ATCC 29213 assessed as reduction in microbial growth by CLSI based broth microdilution method. Format: functional. A general note: In broth dilution the organism is exposed to a series of concentrations in liquid medium.
For another series, the system named is Escherichia coli. In words: Antibacterial activity against Escherichia coli ATCC 25922 assessed as reduction in microbial growth by CLSI based broth microdilution method. Format: functional.
The target in the next series is DNA gyrase (Escherichia coli, UniProt P0AES4+P0AES6). Kind of series: Inhibition of Escherichia coli DNA gyrase(A2B2 tetramer) preincubated for 5 mins followed by ATP addition and measured once per minute for 20 to 30 minutes by ATPase assay. Format: protein-complex assay.
Series [1] concerns the target DNA topoisomerase 2-alpha (Homo sapiens) (UniProt P11388). In words: Inhibition of human topoisomerase-2alpha up to 100 uM.
A short description of series [2]: Half life in human liver microsomes. The class given is ADME, Microsome. Background: Microsomes from liver hold many membrane-bound enzymes, among them those of drug oxidation.
Series [3] in a line: Aqueous solubility of compound. Format: physicochemical.
Series [4] can be described thus: Efflux ratio of apparent permeability across basolateral to apical over apical to basolateral side in human Caco2 cells. Conditions: Caco-2. The class given is ADME, cell-based.
A short description of series [5]: Protein binding in human plasma. Conditions: read-out: PPB (converted). The class given is ADME, cell-free.
Series [6] can be described thus: Apparent permeability across apical to basolateral side in human Caco2 cells. The class given is ADME, cell-based. Conditions: Caco-2. (Caco-2 cells form a polarised layer with tight junctions and transporters.)
Series [7] is described as follows: Half life in mouse liver microsomes. Format: ADME, Microsome.

Chain of DNA topoisomerase 2-alpha (Homo sapiens) (P11388 whole entry): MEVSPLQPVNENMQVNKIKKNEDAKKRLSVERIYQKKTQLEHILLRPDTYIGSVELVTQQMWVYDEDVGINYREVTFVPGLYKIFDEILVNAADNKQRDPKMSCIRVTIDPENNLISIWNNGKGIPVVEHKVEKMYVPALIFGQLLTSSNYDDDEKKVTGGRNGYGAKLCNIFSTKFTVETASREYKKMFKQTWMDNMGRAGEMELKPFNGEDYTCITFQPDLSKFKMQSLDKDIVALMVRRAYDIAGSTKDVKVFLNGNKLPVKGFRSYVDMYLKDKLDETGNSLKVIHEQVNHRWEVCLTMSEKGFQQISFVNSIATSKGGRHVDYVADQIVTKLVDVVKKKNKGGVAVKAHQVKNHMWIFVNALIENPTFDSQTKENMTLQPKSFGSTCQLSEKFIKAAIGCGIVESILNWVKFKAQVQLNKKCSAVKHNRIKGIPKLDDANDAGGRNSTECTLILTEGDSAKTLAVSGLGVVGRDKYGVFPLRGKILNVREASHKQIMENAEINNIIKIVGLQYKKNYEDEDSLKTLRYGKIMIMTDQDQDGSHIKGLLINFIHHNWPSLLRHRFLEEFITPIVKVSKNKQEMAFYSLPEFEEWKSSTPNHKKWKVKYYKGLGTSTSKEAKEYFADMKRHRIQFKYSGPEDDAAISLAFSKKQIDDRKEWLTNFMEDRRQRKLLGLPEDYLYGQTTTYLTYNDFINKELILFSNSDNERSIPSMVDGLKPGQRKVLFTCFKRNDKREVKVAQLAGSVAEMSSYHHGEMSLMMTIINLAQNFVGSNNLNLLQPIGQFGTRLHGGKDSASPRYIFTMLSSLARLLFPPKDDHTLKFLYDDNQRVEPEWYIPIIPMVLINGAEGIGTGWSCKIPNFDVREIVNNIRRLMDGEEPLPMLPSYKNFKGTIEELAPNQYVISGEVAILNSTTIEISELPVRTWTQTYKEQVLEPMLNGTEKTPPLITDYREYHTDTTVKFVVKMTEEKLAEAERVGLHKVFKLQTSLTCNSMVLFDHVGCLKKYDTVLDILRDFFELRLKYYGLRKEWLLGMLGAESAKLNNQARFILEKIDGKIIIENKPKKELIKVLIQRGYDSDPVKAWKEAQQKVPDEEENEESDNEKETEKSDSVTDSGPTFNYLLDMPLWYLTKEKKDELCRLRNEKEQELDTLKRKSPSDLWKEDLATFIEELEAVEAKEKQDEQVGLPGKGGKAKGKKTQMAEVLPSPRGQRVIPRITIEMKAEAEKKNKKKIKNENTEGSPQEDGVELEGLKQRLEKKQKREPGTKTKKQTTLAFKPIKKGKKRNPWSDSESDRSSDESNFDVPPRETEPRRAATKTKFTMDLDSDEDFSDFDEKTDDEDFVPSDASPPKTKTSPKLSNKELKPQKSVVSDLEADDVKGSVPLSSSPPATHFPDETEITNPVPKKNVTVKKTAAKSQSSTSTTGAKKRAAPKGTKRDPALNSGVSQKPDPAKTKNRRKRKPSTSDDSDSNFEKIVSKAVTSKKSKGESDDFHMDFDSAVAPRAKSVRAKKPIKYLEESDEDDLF

For the molecule `CCNC(=O)Nc1cc(-n2cc(Br)cn2)c(C(=O)Nc2cccnc2)cn1`, the MIC is 16 µg/mL in the series on Staphylococcus aureus and over 64 µg/mL in the series with Escherichia coli. In addition, 37 nM corresponded to half-maximal inhibition against DNA gyrase (IC50). For the same molecule, in series [1], the inhibition result is “inactive”.

Molecule `CCNC(=O)Nc1cc(-n2ccnn2)c(C(=O)Nc2cccnc2)cn1` gave an IC50 at DNA gyrase of 200 nM.

`CCNC(=O)Nc1cc(N2CCC(N)C2)c(C(=O)Nc2cccnc2)cn1` (stereo not given) came in with a half-life in [2] of 290 min. For the same molecule, the minimal inhibitory concentration (MIC) with Staphylococcus aureus and in the series on Escherichia coli was over 64 µg/mL each time. Besides, the solubility in series [3] turned out to be 88.5 µM (≈ 32.7 µg/mL). The same molecule came in with an IC50 against DNA gyrase of 89 nM. Besides, the efflux ratio in [4] was found to be 2.78. The inhibition entry in [1] is “inactive”. Further, in series [5], the fraction unbound was 0.498. Also, the apparent permeability from apical to basolateral (Papp A→B) in [6] turned out to be 4.02 ×10⁻⁶ cm/s.

As for `CCNC(=O)Nc1cc(N2CCCC2)c(C(=O)Nc2cccnc2)cn1`, the MIC in the series with Staphylococcus aureus is 64 µg/mL; with Escherichia coli, over 64 µg/mL. The concentration for half-maximal inhibition (IC50) against DNA gyrase was determined as 120 nM.

`CCNC(=O)Nc1cc(Nc2ccc(OC)cc2)c(C(=O)Nc2cccnc2)cn1` registered a half-life in [2] of 20 min. In addition, the minimum inhibitory concentration (MIC) is 4 µg/mL in the series with Staphylococcus aureus and over 64 µg/mL with Escherichia coli. In addition, the solubility in series [3] is 2.4 µM (≈ 0.975 µg/mL). At DNA gyrase, this molecule came in with an IC50 of 19 nM. Besides, the efflux ratio in series [4] is 2.82. In addition, the inhibition result in series [1] was “inactive”. Besides, the fraction unbound in series [5] was 0.028. Also, in series [6], the Papp A→B came out at 11.8 ×10⁻⁶ cm/s.

Regarding `CCNC(=O)Nc1cc(Nc2ccccc2O)c(C(=O)Nc2cccnc2)cn1`, the MIC in the series with Staphylococcus aureus and with Escherichia coli was over 64 µg/mL each time. Moreover, the concentration for half-maximal inhibition (IC50) against DNA gyrase stood at 410 nM.

Regarding `CCNC(=O)Nc1cc(-n2cccn2)c(C(=O)Nc2cccnc2)cn1`, the half-life in series [2] came to 128 min; in series [7], 24 min. The MIC with Staphylococcus aureus was 64 µg/mL; with Escherichia coli, over 64 µg/mL. In series [3], this molecule registered a solubility of 32.6 µM (≈ 11.5 µg/mL). Moreover, at DNA gyrase, the 50% inhibitory concentration (IC50) was found to be 86 nM. In series [4], the efflux ratio amounted to 30.8. Besides, in [1], the inhibition entry is “inactive”. The fraction unbound in series [5] was 0.095. Besides, the apical-to-basolateral permeability (Papp A→B) in [6] came out at 1.23 ×10⁻⁶ cm/s.

Turning to `CCNC(=O)Nc1cc(Nc2cccc(C)c2)c(C(=O)Nc2cccc(C)c2)cn1`, the half-life stood at 46 min in series [2] and 58 min in series [7]. This molecule gave a solubility in series [3] of 4.26 µM (≈ 1.72 µg/mL). The fraction unbound in series [5] was 0.001. Further, the Papp A→B in series [6] was under 2.67 ×10⁻⁶ cm/s.

Turning to `CCNC(=O)Nc1cc(-n2nccn2)c(C(=O)Nc2cccnc2)cn1`, the MIC in the series with Staphylococcus aureus was 64 µg/mL; in the series with Escherichia coli, over 64 µg/mL. The molecule also displayed an IC50 on DNA gyrase of 150 nM.

As for `CCNC(=O)Nc1cc(-n2cncn2)c(C(=O)Nc2cccnc2)cn1`, the minimum inhibitory concentration (MIC) in the series on Staphylococcus aureus and with Escherichia coli was over 64 µg/mL each time. Also, the IC50 on DNA gyrase is 82 nM.

For orientation: MIC means the least concentration at which growth counts as inhibited. As a reminder, the IC50 is the concentration at which inhibition is half-maximal. A higher IC50 goes with weaker potency in that assay. Usually half-life stands for how long it takes for the measured level to halve. A high value points to slow decline. Usually solubility stands for how much of the substance goes into solution per volume. What is called efflux ratio is a quotient of directional permeabilities that is used to spot active efflux. Usually Papp A→B stands for the apparent permeability from the apical to the basolateral side of a cell layer.
